Source: PubChem BioAssay AID2060613 (Molecular Pharmacology Branch, DTP, NCI, 2025)
Values joined by “and” are separate entries in the source; they are usually repeats but may differ in a detail not shown here. Equal entries are not always repeated.

System: 233499-124-R-J3-PDC complex spheroid viability
Assay: Anticancer human tumor 233499-124-R-J3-PDC patient-derived colon adenocarcinoma cell line growth inhibition [CLK]
Conditions: for viability, T/C: stronger effect = lower value; active = viability on the fitted dose curve at most 10% of control; inactive = the rest
Excerpt: A high-throughput screen of multi-cell type tumor spheroids was designed to identify active combinations of […] and targeted small molecules. Complex spheroids include a stromal component modeled by human endothelial cells (HUVEC) and fibroblasts modeled by human mesenchymal stem cells (MSCs). The concentration ranges selected for each drug and investigational agent were based upon clinically achievable concentrations if the clinical Cmax of the agent was known.
Compounds. The drugs and investigational agents: cirtuvivint (SM08502; NSC835563), CC-671 (NSC850746), vemurafenib (NSC761431), tapotoclax (NSC804041), sotorasib (NSC818433), adagrasib (NSC831453), MRTX-1133 (NSC836407), BAY2416964 (NSC825713), copanlisib (NSC816437), inavolisib (NSC800729), abemaciclib (NSC768073), osimertinib (NSC779217), entinostat (NSC756642), eltanexor (KPT-8602, NSC794443), venetoclax (NSC766270), ceralasertib (NSC777638), bortezomib (NSC756655), olaparib (NSC753686), talazoparib (NSC767125), alisertib (NSC759677), peposertib (NSC802822), gemcitabine (NSC613327), 5-fluorouracil (NSC19893), SN-38 (NSC673596), oxaliplatin (NSC266046), paclitaxel (NSC125973), and doxorubicin (NSC123127), were obtained from the National Cancer Institute (NCI) Developmental Therapeutics Program Chemical Repository. The FDA-approved anticancer drug set is available from the Developmental Therapeutics Program at https://dtp.cancer.gov/organization/dscb/obtaining/available plates.htm. […] The stock solutions were prepared in dimethyl sulfoxide (DMSO, Sigma-Aldrich, St. Louis, MO, cat. D2650), except for the platinum complexes which were prepared in saline (Quality Biological, Gaithersburg, MD, cat. 114-055-101), at 800-fold the tested concentration and stored at -70 degrees C prior to their use. All drugs and investigational agents were tested over a range starting from a high concentration at or near the clinical Cmax and decreasing in half-log increments. If the clinical Cmax for an agent had not been determined, the highest concentration tested was 10 microM.
Cell Culture. All cells were maintained in an incubator at 37 degrees C and 5% CO2 with 95% humidity. The PDC lines were cultured according to standard operating procedures established by the NCI PDMR. Briefly, all PDCs were thawed and cultured in Matrigel-coated flasks prepared with a working solution of 1X Ham's F-12 nutrient mix, without supplementation (Invitrogen, Waltham, MA, cat. 11765054), 100 U/mL penicillin-streptomycin (Invitrogen, cat. 15140122), and 2.5% Matrigel (Corning Inc., Corning, NY, cat. 354248) for the first three passages. The 947758-054-R-J2-PDC line was cultured in 6B/Colon 1A media, which includes advanced DMEM/F-12 (Thermo Fisher Scientific, cat. 12634028), 10 mM HEPES (Thermo Fisher Scientific, cat. 15630080), 1X GlutaMAX supplement (Thermo Fisher Scientific, cat. 35050061), 0.1 mg/mL primocin (InvivoGen, cat. ant-pm-2), 10% defined fetal bovine serum, heat inactivated (HyClone Laboratories Inc., cat. SH30070.03HI), 1.25 mM N-Acetyl-L-cysteine (Sigma-Aldrich, cat. A9165), 10 mM nicotinamide (Sigma-Aldrich, cat. N0636), 1X B-27 supplement (Thermo Fisher Scientific, cat. 17504044), 1X N-2 supplement (Thermo Fisher Scientific, cat. 17502048), and 10 microM Y-27632 dihydrochloride (Tocris Bioscience, cat. 1254). The 876862-298-R-J1-PDC was cultured in 6E media, which includes all 6B/Colon 1A media components plus 50% L-WRN conditioned media (ATCC, cat. CRL-3276), 50 ng/mL recombinant human EGF recombinant protein (hEGF; Thermo Fisher Scientific, cat. PHG0311), 10 ng/mL recombinant human fibroblast growth factor 10 (hGFG-10; PeproTech, cat. 100-26), 1 ng/mL recombinant human fibroblast growth factor 2 (hFGF-2; PeproTech, cat. 100-18B), and 1 µM prostaglandin E2 (PGE2; Tocris, cat. 2296). The 227483-062-R1-J1-PDC line was cultured in Panc media, containing all 6E components except hFGF-2, with the addition of 500 nM SB-431542 (Selleckchem, cat. S1067) and 10 nM gastrin (Tocris, cat. 3006). […]

[1] = curve of first compound, second compound 0.0316 µM
[2] = curve of first compound, second compound 0.1 µM
[3] = curve of first compound, second compound 0.316 µM
[4] = curve of first compound, second compound 1 µM
[5] = curve of first compound, second compound 3.16 µM
[6] = curve of first compound, second compound 10 µM
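Note: spheroids exposed to the drug combinations for seven days.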
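Throughout, for viability, T/C: percent viability relative to DMSO vehicle control wells taken as 100%.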

C=CC(=O)N1CCN(c2nc(=O)n(-c3c(C)ccnc3C(C)C)c3nc(-c4c(O)cccc4F)c(F)cc23)C(C)C1 (stereo unspecified) + CNC(=O)c1ccc(Nc2nc(OC3CCCC3)c3c(-c4ccc5nc(C)oc5c4)c[nH]c3n2)c(OC)c1
inactive: viability, T/C (second compound 0.0316 µM, first compound 0.0316 µM) 84.8% | viability, T/C (second compound 0.0316 µM, first compound 0.1 µM) 86.5% | viability, T/C (second compound 0.0316 µM, first compound 0.316 µM) 94.4% | viability, T/C (second compound 0.0316 µM, first compound 1 µM) 93.6% | viability, T/C (second compound 0.0316 µM, first compound 3.16 µM) 96.3% | viability, T/C (second compound 0.0316 µM, first compound 10 µM) 98.3% | viability, T/C (second compound 0.1 µM, first compound 0.0316 µM) 79.6% | viability, T/C (second compound 0.1 µM, first compound 0.1 µM) 71.6% | viability, T/C (second compound 0.1 µM, first compound 0.316 µM) 72.6% | viability, T/C (second compound 0.1 µM, first compound 1 µM) 79.7% | viability, T/C (second compound 0.1 µM, first compound 3.16 µM) 85.2% | viability, T/C (second compound 0.1 µM, first compound 10 µM) 77.5% | viability, T/C (second compound 0.316 µM, first compound 0.0316 µM) 75.9% | viability, T/C (second compound 0.316 µM, first compound 0.1 µM) 76.4% | viability, T/C (second compound 0.316 µM, first compound 0.316 µM) 75.8% | viability, T/C (second compound 0.316 µM, first compound 1 µM) 75.4% | viability, T/C (second compound 0.316 µM, first compound 3.16 µM) 80.5% | viability, T/C (second compound 0.316 µM, first compound 10 µM) 82.8% | viability, T/C (second compound 1 µM, first compound 0.0316 µM) 81.2% | viability, T/C (second compound 1 µM, first compound 0.1 µM) 73.7% | viability, T/C (second compound 1 µM, first compound 0.316 µM) 74.3% | viability, T/C (second compound 1 µM, first compound 1 µM) 87.5% | viability, T/C (second compound 1 µM, first compound 3.16 µM) 90% | viability, T/C (second compound 1 µM, first compound 10 µM) 86.4% | viability, T/C (second compound 3.16 µM, first compound 0.0316 µM) 68.5% | viability, T/C (second compound 3.16 µM, first compound 0.1 µM) 71.3% | viability, T/C (second compound 3.16 µM, first compound 0.316 µM) 65.7% | viability, T/C (second compound 3.16 µM, first compound 1 µM) 86.7% | viability, T/C (second compound 3.16 µM, first compound 3.16 µM) 80.5% | viability, T/C (second compound 3.16 µM, first compound 10 µM) 76.7% | viability, T/C (second compound 10 µM, first compound 0.0316 µM) 71.2% | viability, T/C (second compound 10 µM, first compound 0.1 µM) 78.4% | viability, T/C (second compound 10 µM, first compound 0.316 µM) 69.6% | viability, T/C (second compound 10 µM, first compound 1 µM) 74.8% | viability, T/C (second compound 10 µM, first compound 3.16 µM) 81% | viability, T/C (second compound 10 µM, first compound 10 µM) 91.2%
> 10000 nM: IC50 [1] | IC50 [2] | IC50 [3] | IC50 [4] | IC50 [5] | IC50 [6]

CC(C)CC(NC(=O)C(Cc1ccccc1)NC(=O)c1cnccn1)B(O)O (stereo unspecified) + CNC(=O)c1ccc(Nc2nc(OC3CCCC3)c3c(-c4ccc5nc(C)oc5c4)c[nH]c3n2)c(OC)c1
inactive: viability, T/C (second compound 0.0316 µM, first compound 0.000949 µM) 96.3% | viability, T/C (second compound 0.0316 µM, first compound 0.003 µM) 106% | viability, T/C (second compound 0.1 µM, first compound 0.000949 µM) 81.5% | viability, T/C (second compound 0.1 µM, first compound 0.003 µM) 82.5% | viability, T/C (second compound 0.316 µM, first compound 0.000949 µM) 69.5% | viability, T/C (second compound 0.316 µM, first compound 0.003 µM) 43.7% | viability, T/C (second compound 1 µM, first compound 0.000949 µM) 92.2% | viability, T/C (second compound 1 µM, first compound 0.003 µM) 30.1% | viability, T/C (second compound 3.16 µM, first compound 0.000949 µM) 71.7% | viability, T/C (second compound 3.16 µM, first compound 0.003 µM) 18.4% | viability, T/C (second compound 10 µM, first compound 0.000949 µM) 77% | viability, T/C (second compound 10 µM, first compound 0.003 µM) 34.5%
2.27 nM: IC50 [3]
1.97 nM: IC50 [6]
1.51 nM: IC50 [5]
5.39 nM: IC50 [1]
active: viability, T/C (second compound 0.0316 µM, first compound 0.00949 µM) 0.33% | viability, T/C (second compound 0.0316 µM, first compound 0.03 µM) 0.21% | viability, T/C (second compound 0.0316 µM, first compound 0.0949 µM) 0.19% | viability, T/C (second compound 0.0316 µM, first compound 0.3 µM) 0.17% | viability, T/C (second compound 0.1 µM, first compound 0.00949 µM) 0.57% | viability, T/C (second compound 0.1 µM, first compound 0.03 µM) 0.17% | viability, T/C (second compound 0.1 µM, first compound 0.0949 µM) 0.16% | viability, T/C (second compound 0.1 µM, first compound 0.3 µM) 0.16% | viability, T/C (second compound 0.316 µM, first compound 0.00949 µM) 0.19% | viability, T/C (second compound 0.316 µM, first compound 0.03 µM) 0.16% | viability, T/C (second compound 0.316 µM, first compound 0.0949 µM) 0.14% | viability, T/C (second compound 0.316 µM, first compound 0.3 µM) 0.54% | viability, T/C (second compound 1 µM, first compound 0.00949 µM) 0.18% | viability, T/C (second compound 1 µM, first compound 0.03 µM) 0.15% | viability, T/C (second compound 1 µM, first compound 0.0949 µM) 0.15% | viability, T/C (second compound 1 µM, first compound 0.3 µM) 0.15% | viability, T/C (second compound 3.16 µM, first compound 0.00949 µM) 0.16% | viability, T/C (second compound 3.16 µM, first compound 0.03 µM) 0.16% | viability, T/C (second compound 3.16 µM, first compound 0.0949 µM) 0.16% | viability, T/C (second compound 3.16 µM, first compound 0.3 µM) 0.7% | viability, T/C (second compound 10 µM, first compound 0.00949 µM) 0.2% | viability, T/C (second compound 10 µM, first compound 0.03 µM) 0.17% | viability, T/C (second compound 10 µM, first compound 0.0949 µM) 0.2% | viability, T/C (second compound 10 µM, first compound 0.3 µM) 0.66%
4.71 nM: IC50 [2]
2.07 nM: IC50 [4]

CCCS(=O)(=O)Nc1ccc(F)c(C(=O)c2c[nH]c3ncc(-c4ccc(Cl)cc4)cc23)c1F
inactive: viability, T/C (compound 0.0316 µM) 91.2% and 100% | viability, T/C (compound 0.1 µM) 97.3% and 103% | viability, T/C (compound 0.316 µM) 111% and 99.1% | viability, T/C (compound 1 µM) 104% and 110% | viability, T/C (compound 3.16 µM) 104% and 105% | viability, T/C (compound 10 µM) 98% and 65.2%
> 10000 nM: IC50 (curve of compound)
